# Source: US20260146035A1, “FUSED BICYCLIC COMPOUNDS AND THEIR USE AS MER AND AXL INHIBITORS” (DONG-A ST CO., LTD., priority 2022, published 2026)
# pIC50: −log10 of the molar value.
# Columns and labels:
# [1] = molecular target: T1, human MER (528-end) (Homo sapiens, UniProt Q12866); assay: HTRF kinase activity biochemical assay, MER; details: 10 μM ATP, 30 minutes pre-incubation; read-out: HTRF MERTK IC50
# T1 construct: human MER (528-end); purchased Camnabio, Japan
# T1 sequence (Q12866 528-999 limits assumed): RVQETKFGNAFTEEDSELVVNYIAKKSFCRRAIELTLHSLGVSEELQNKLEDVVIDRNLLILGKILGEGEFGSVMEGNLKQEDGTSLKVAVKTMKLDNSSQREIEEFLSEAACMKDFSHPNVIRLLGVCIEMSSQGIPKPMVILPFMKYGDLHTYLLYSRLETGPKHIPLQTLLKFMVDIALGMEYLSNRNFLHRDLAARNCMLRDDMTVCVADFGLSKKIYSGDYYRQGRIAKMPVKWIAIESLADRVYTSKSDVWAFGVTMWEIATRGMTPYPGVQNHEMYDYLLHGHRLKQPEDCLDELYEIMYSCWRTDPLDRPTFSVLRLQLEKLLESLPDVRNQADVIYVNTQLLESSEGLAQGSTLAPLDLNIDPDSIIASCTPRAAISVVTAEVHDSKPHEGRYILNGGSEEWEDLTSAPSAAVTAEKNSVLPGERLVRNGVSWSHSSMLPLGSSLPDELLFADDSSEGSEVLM
# [2] = molecular target: T2, human AXL (473-end) (Homo sapiens, UniProt P30530); assay: HTRF kinase activity biochemical assay, AXL; details: 10 μM ATP, 30 minutes pre-incubation
# T2 construct: human AXL (473-end); purchased SignalChem, Canada
# T2 sequence (P30530 473-894 limits assumed): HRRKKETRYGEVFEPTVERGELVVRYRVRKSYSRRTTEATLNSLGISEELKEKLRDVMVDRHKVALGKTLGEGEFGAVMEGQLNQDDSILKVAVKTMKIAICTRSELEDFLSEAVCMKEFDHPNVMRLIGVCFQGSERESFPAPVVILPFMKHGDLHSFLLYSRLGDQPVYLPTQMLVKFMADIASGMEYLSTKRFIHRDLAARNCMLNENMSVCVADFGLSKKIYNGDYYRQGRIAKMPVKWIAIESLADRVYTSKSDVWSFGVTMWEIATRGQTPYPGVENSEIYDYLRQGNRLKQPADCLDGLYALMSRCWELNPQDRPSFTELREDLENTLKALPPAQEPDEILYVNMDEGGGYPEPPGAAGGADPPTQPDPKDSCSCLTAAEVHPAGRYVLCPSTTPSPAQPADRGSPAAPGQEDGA
# [3] = molecular target: T3, human TYRO3 (455-end) (Homo sapiens, UniProt Q06418); assay: HTRF kinase activity biochemical assay, TYRO3; details: 10 μM ATP, 30 minutes pre-incubation; read-out: HTRF TYRO IC50
# T3 construct: TYRO3 (455-end); purchased SignalChem, Canada
# T3 sequence (Q06418 455-890 limits assumed): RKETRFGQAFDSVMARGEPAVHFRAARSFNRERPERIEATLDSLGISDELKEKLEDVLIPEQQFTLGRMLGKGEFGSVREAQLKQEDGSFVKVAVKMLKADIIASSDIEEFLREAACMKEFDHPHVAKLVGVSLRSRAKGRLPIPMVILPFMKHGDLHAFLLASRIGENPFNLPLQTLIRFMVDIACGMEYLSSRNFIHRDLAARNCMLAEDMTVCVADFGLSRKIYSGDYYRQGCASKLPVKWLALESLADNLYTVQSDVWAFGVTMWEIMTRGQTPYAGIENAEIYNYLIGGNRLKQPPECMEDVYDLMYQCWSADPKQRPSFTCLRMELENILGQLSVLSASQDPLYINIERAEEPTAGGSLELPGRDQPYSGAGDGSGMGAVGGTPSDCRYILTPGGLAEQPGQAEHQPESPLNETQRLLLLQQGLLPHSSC
SMILES,pIC50 [1],pIC50 [2],pIC50 [3]
"Nc1ncc(C(F)(F)F)cc1C(=O)N[C@H]1CCC[C@@H]1OCc1ccc(-c2ccc3c(c2)CCCC3N2CCN(CCO)CC2)cc1 (stereo partly drawn) [Example 124, 2-amino-N-{(1S,2S)-2-[(4-{5-[4-(2-hydroxyethyl)piperazin-1-yl]-5,6,7,8-tetrahydronaphthalen-2-yl}phenyl)methoxy]cyclopentyl}-5-(trifluoromethyl)pyridine-3-carboxamide]",> 8.00,> 8.00,6.00 to 7.00
"CN(CCC(O)CO)C1CCc2cc(-c3ccc(CO[C@H]4CCC[C@@H]4NC(=O)c4cc(-c5cnn(C)c5)cnc4N)cc3)ccc21 (stereo partly drawn) [Example 125, 2-amino-N-{(1S,2S)-2-[(4-{1-[(3,4-dihydroxybutyl)(methyl)amino]-2,3-dihydro-1H-inden-5-yl}phenyl)methoxy]cyclopentyl}-5-(1-methyl-1H-pyrazol-4-yl)pyridine-3-carboxamide]",7.00 to 8.00,7.00 to 8.00,< 6.00
"CN(CCC(O)CO)C1CCc2cc(-c3ccc(CO[C@H]4CCC[C@@H]4NC(=O)c4cc(-c5ccc(F)nc5)cnc4N)cc3)ccc21 (stereo partly drawn) [Example 126, 6-amino-N-{(1S,2S)-2-[(4-{1-[(3,4-dihydroxybutyl)(methyl)amino]-2,3-dihydro-1H-inden-5-yl}phenyl)methoxy]cyclopentyl}-6′-fluoro[3,3′-bipyridine]-5-carboxamide]",7.00 to 8.00,6.00 to 7.00,< 6.00
"CN(CCC(O)CO)C1CCc2cc(-c3ccc(CO[C@H]4CCC[C@@H]4NC(=O)c4cc(-c5cccnc5F)cnc4N)cc3)ccc21 (stereo partly drawn) [Example 127, 6-amino-N-{(1S,2S)-2-[(4-{1-[(3,4-dihydroxybutyl)(methyl)amino]-2,3-dihydro-1H-inden-5-yl}phenyl)methoxy]cyclopentyl}-2′-fluoro[3,3′-bipyridine]-5-carboxamide]",7.00 to 8.00,6.00 to 7.00,< 6.00
"Cn1cc(-c2cnc(N)c(C(=O)N[C@H]3CCC[C@@H]3OCc3ccc(-c4ccc5c(c4)CC[C@@H]5N4CCN(C(CO)CO)CC4)cc3)c2)cn1 [Example 128, 2-amino-N-{(1S,2S)-2-[(4-{(1S)-1-[4-(1,3-dihydroxypropan-2-yl)piperazin-1-yl]-2,3-dihydro-1H-inden-5-yl}phenyl)methoxy]cyclopentyl}-5-(1-methyl-1H-pyrazol-4-yl)pyridine-3-carboxamide]",> 8.00,> 8.00,6.00 to 7.00
"Nc1ncc(-c2cccnc2F)cc1C(=O)N[C@H]1CCC[C@@H]1OCc1ccc(-c2ccc3c(c2)CC[C@@H]3N2CCN(C(CO)CO)CC2)cc1 [Example 129, 6-amino-N-{(1S,2S)-2-[(4-{(1S)-1-[4-(1,3-dihydroxypropan-2-yl)piperazin-1-yl]-2,3-dihydro-1H-inden-5-yl}phenyl)methoxy]cyclopentyl}-2′-fluoro[3,3′-bipyridine]-5-carboxamide]",> 8.00,> 8.00,< 6.00
"CC1(C)CC(N2CCN(CCO)CC2)c2ccc(-c3ccc(CO[C@H]4CCC[C@@H]4NC(=O)c4cc(C(F)(F)F)cnc4N)cc3)cc21 (stereo partly drawn) [Example 130, 2-amino-N-{(1S,2S)-2-[(4-{1-[4-(2-hydroxyethyl)piperazin-1-yl]-3,3-dimethyl-2,3-dihydro-1H-inden-5-yl}phenyl)methoxy]cyclopentyl}-5-(trifluoromethyl)pyridine-3-carboxamide]",> 8.00,> 8.00,6.00 to 7.00
"Nc1ncc(C(F)(F)F)cc1C(=O)N[C@H]1CCC[C@@H]1OCc1ccc(-c2ccc3c(c2)CC[C@@H]3N2CCN(CCO)CC2)cc1 [Example 131, 2-amino-N-{(1S,2S)-2-[(4-{(1S)-1-[4-(2-hydroxyethyl)piperazin-1-yl]-2,3-dihydro-1H-inden-5-yl}phenyl)methoxy]cyclopentyl}-5-(trifluoromethyl)pyridine-3-carboxamide]",> 8.00,> 8.00,6.00 to 7.00
"Nc1ncc(-c2cncc(F)c2)cc1C(=O)N[C@H]1CCC[C@@H]1OCc1ccc(-c2ccc3c(c2)OCCC3N2CCN(CCO)CC2)cc1 (stereo partly drawn) [Example 132, 6-amino-5′-fluoro-N-{(1S,2S)-2-[(4-{4-[4-(2-hydroxyethyl)piperazin-1-yl]-3,4-dihydro-2H-1-benzopyran-7-yl}phenyl)methoxy]cyclopentyl}[3,3′-bipyridine]-5-carboxamide]",> 8.00,> 8.00,6.00 to 7.00
"Nc1ncc(C(F)(F)F)cc1C(=O)N[C@H]1CCC[C@@H]1OCc1ccc(-c2ccc3c(c2)OCCC3N2CCN(CCO)CC2)cc1 (stereo partly drawn) [Example 133, 2-amino-N-{(1S,2S)-2-[(4-{4-[4-(2-hydroxyethyl)piperazin-1-yl]-3,4-dihydro-2H-1-benzopyran-7-yl}phenyl)methoxy]cyclopentyl}-5-(trifluoromethyl)pyridine-3-carboxamide]",> 8.00,> 8.00,< 6.00
"Nc1ncc(-c2cccnc2F)cc1C(=O)N[C@H]1CCC[C@@H]1OCc1ccc(-c2ccc3c(c2)OCCC3N2CCN(CCO)CC2)cc1 (stereo partly drawn) [Example 134, 6-amino-2′-fluoro-N-{(1S,2S)-2-[(4-{4-[4-(2-hydroxyethyl)piperazin-1-yl]-3,4-dihydro-2H-1-benzopyran-7-yl}phenyl)methoxy]cyclopentyl}[3,3′-bipyridine]-5-carboxamide]",> 8.00,> 8.00,6.00 to 7.00
"CC1(C)C[C@@H](N2CCN(CCO)CC2)c2ccc(-c3ccc(CO[C@H]4CCC[C@@H]4NC(=O)c4cc(-c5cccnc5F)cnc4N)cc3)cc21 [Example 135, 6-amino-2′-fluoro-N-{(1S,2S)-2-[(4-{(1R)-1-[4-(2-hydroxyethyl)piperazin-1-yl]-3,3-dimethyl-2,3-dihydro-1H-inden-5-yl}phenyl)methoxy]cyclopentyl}[3,3′-bipyridine]-5-carboxamide]",> 8.00,> 8.00,6.00 to 7.00
"COc1ccnc(N)c1C(=O)N[C@H]1CCC[C@@H]1OCc1ccc(-c2ccc3c(c2)C(C)(C)CC3N2CCN(CCO)CC2)cc1 (stereo partly drawn) [Example 136, 2-amino-N-{(1S,2S)-2-[(4-{1-[4-(2-hydroxyethyl)piperazin-1-yl]-3,3-dimethyl-2,3-dihydro-1H-inden-5-yl}phenyl)methoxy]cyclopentyl}-4-methoxypyridine-3-carboxamide]",> 8.00,> 8.00,6.00 to 7.00
"COc1ccnc(N)c1C(=O)N[C@H]1CCC[C@@H]1OCc1ccc(-c2ccc3c(c2)CC[C@@H]3N2CCN(CCO)CC2)cc1 [Example 137, 2-amino-N-{(1S,2S)-2-[(4-{(1S)-1-[4-(2-hydroxyethyl)piperazin-1-yl]-2,3-dihydro-1H-inden-5-yl}phenyl)methoxy]cyclopentyl}-4-methoxypyridine-3-carboxamide]",> 8.00,> 8.00,6.00 to 7.00
"COc1ccnc(N)c1C(=O)N[C@H]1CCC[C@@H]1OCc1ccc(-c2ccc3c(c2)C(C)(C)CC3N2CCN(C)CC2)cc1 (stereo partly drawn) [Example 138, 2-amino-N-[(1S,2S)-2-({4-[3,3-dimethyl-1-(4-methylpiperazin-1-yl)-2,3-dihydro-1H-inden-5-yl]phenyl}methoxy)cyclopentyl]-4-methoxypyridine-3-carboxamide]",> 8.00,> 8.00,6.00 to 7.00
